Assay results as given in patent publication US8232407B2, “Nitrogenous heterocyclic compounds with insecticidal activity, and the preparation and use thereof” (East China University of Science and Technology, priority 2008, dated 2012).

What was measured:
Assay type in all cases: in vivo
[1] = test system: Pseudaletia separate Walker; assay: Insecticidal activities to armyworm, leaf dipping and feeding
How it was run: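 Maize leaves dipped 3 s in acetone-formulated compound at 500 down to 1.57 ppm, dried and fed to armyworms, 10 insects per treatment in triplicate, aqueous acetone as control. Mortality was counted after 24 hours and corrected against control survival.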

Plutella xylostella = assay: Insecticidal activities to diamondback moth, feeding dipped leaves; settings: for Plutella xylostella Mortality (%) 500 ppm: in vivo
How it was run: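 Leaf-dip feeding assay: fresh cabbage leaves dipped 3 s in test solution, air-dried and fed to Plutella xylostella, 10 insects per treatment, three replicates, water control. Deaths counted after 24 h; mortality corrected against survival in the control group.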

Aphis craccivoral = assay: Insecticidal activities to aphids, immersion method; settings: for Aphis craccivoral Mortality (%) 500 ppm: in vivo
How it was run: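 Wingless adult aphids feeding on bean sprouts were dipped 5 s in 500 ppm compound (DMF stock diluted in 0.2 mL/L aqueous Triton X-100), blotted and held at 23° C. Dead counted at 24 h, three replicates; mortality corrected against Triton-only controls.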

Nilaparvata lugens = assay: Insecticidal activities to plant hopper, spraying method; settings: for Nilaparvata lugens Mortality (%) 500 ppm: in vivo
How it was run: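 Nilaparvata lugens, 10 insects per tumbler, sprayed with 2 ml compound in acetone at 0.79-500 ppm, three replicates, aqueous acetone control. Dead insects counted after 24 h; mortality corrected against control survival.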

Structure (SMILES)	Pseudaletia separate Walker Mortality (%) 500 ppm ([1]; in vivo)	Plutella xylostella Mortality (%) 500 ppm (Plutella xylostella)	Aphis craccivoral Mortality (%) 500 ppm (Aphis craccivoral)	Nilaparvata lugens Mortality (%) 500 ppm (Nilaparvata lugens)	also measured
Cc1ccc(C=C(C2=NCCN2Cc2cnc(Cl)s2)[N+](=O)[O-])o1 [Compound 79]	100%	100%	100%	100%	
C[N+]1=C(C(=Cc2ccco2)[N+](=O)[O-])N(Cc2ccc(Cl)nc2)CC1.[Cl-] [Compound 244]	100%	100%	100%	100%	
CC[N+]1=C(C(=Cc2ccoc2)[N+](=O)[O-])N(Cc2ccc(Cl)nc2)CC1.[Cl-] [Compound 286]	100%	100%	100%	100%	
O=[N+]([O-])C(=Cc1ccoc1)C1=NCCN1Cc1ccccc1 [Compound 104]	79%	81%	96%	100%	
N#CC(=Cc1ccoc1)C1=NCCN1Cc1ccc(Cl)nc1 [Compound 141]	100%	100%	100%	100%	
O=[N+]([O-])C(=Cc1cc(Br)co1)C1=NCCN1Cc1ccccc1 [Compound 107]	96%	85%	82%	92%	
O=[N+]([O-])C(=Cc1ccc(Br)o1)C1=NCCN1CC1CCOC1 (stereo not shown) [Compound 95]	87%	92%	65%	61%	
O=[N+]([O-])C(=Cc1cc(Br)c(Br)o1)C1=NCCN1CC1CCOC1 (stereo not shown) [Compound 100]	100%	100%	90%	100%	
C[N+]1=C(C(=Cc2ccoc2)[N+](=O)[O-])N(Cc2cnc(Cl)s2)CC1.[Cl-] [Compound 276]	100%	100%	100%	100%	
O=[N+]([O-])C(=Cc1cnc[nH]1)C1=NCCN1Cc1ccc(Cl)nc1 [Compound 36]	100%	100%	98%	89%	
CC(=C(C1=NCCN1Cc1ccc(Cl)nc1)[N+](=O)[O-])c1ccc(Cl)s1 [Compound 118]	19%	23%	93%	90%	
O=[N+]([O-])C(=Cc1oc(Cl)cc1Cl)C1=NCCN1Cc1ccc(Cl)nc1 [Compound 9]	100%	100%	100%	100%	
O=[N+]([O-])C(=Cc1ccc([N+](=O)[O-])s1)C1=NCCCN1Cc1ccc(Cl)nc1 [Compound 63]	100%	100%	98%	100%	
O=[N+]([O-])C(=Cc1ccc([N+](=O)[O-])s1)C1=NCCN1Cc1cnc(Cl)s1 [Compound 85]	100%	100%	100%	100%	
CC(=C(C1=NCCN1C(C)c1ccc(Cl)nc1)[N+](=O)[O-])c1ccsc1 (racemic) [Compound 139]	95%	100%	93%	100%	
N#CC(=Cc1sc(Cl)cc1Cl)C1=NCCN1Cc1ccc(Cl)nc1 [Compound 150]					Pseudaletia separate Walker Mortality (%) ([1]; 500 ppm, maize leaf dipping and feeding, counted after 24 hours): 100%; Plutella xylostella Mortality (%) (Plutella xylostella; 500 ppm, feeding dipped cabbage leaves, counted after 24 hours): 100%; Aphis craccivoral Mortality (%) (Aphis craccivoral; 500 ppm, immersion method): 95%; Nilaparvata lugens Mortality (%) (Nilaparvata lugens; 500 ppm, spraying method, counted after 24 hours): 100%
O=[N+]([O-])C(=Cc1cc(Cl)cs1)C1=NCCN1Cc1ccc(Cl)nc1 [Compound 21]	100%	100%	100%	100%	
N#CC(=Cc1cc(Br)cs1)C1=NCCN1Cc1ccc(Cl)nc1 [Compound 148]	100%	100%	97%	100%	
C[N+]1=C(C(=Cc2ccc(Cl)s2)[N+](=O)[O-])N(Cc2ccc(Cl)nc2)CC1.[Cl-] [Compound 262]	100%	100%	100%	100%	
C[N+]1=C(C(=Cc2ccc([N+](=O)[O-])o2)[N+](=O)[O-])N(Cc2ccc(Cl)nc2)CC1.[Cl-] [Compound 246]	100%	100%	100%	100%	
CC[N+]1=C(C(=Cc2ccc(Cl)o2)[N+](=O)[O-])N(Cc2ccc(Cl)nc2)CC1.[Cl-] [Compound 288]	100%	100%	100%	100%	
O=[N+]([O-])C(=Cc1ccoc1)C1=NCCN1CC1CCOC1 (stereo not shown) [Compound 92]	100%	100%	80%	100%	
O=[N+]([O-])C(=Cc1cc(Br)co1)C1=NCCN1CC1CCOC1 (stereo not shown) [Compound 97]	90%	86%	76%	88%	
C[N+]1=C(C(=Cc2ccoc2)[N+](=O)[O-])N(Cc2ccc(Cl)nc2)CC1.[Cl-] [Compound 245]	100%	100%	100%	100%	
CCc1ccc(C=C(C2=NCCN2Cc2cnc(Cl)s2)[N+](=O)[O-])o1 [Compound 81]	100%	100%	100%	100%	
O=[N+]([O-])/C(=C/c1cccs1)C1=NCCN1Cc1ccc(Cl)nc1 [Compound 16, 2-chloro-5-((2-(1-nitro-2-(thiophen-2-yl)vinyl)-4,5-dihydro-imidazol-1-yl)-methyl)pyridine]					Pseudaletia separate Walker Mortality (%) 500 ppm ([1]; 500 ppm, leaf dipping and feeding, counted after 24 hours): 100%; mortality at 500 ppm (Plutella xylostella; Plutella xylostella, 500 ppm, feeding dipped leaves, counted after 24 hours, read-out: Plutella xylostella Mortality (%) 500 ppm): 100%; mortality at 500 ppm (Aphis craccivoral; Aphis, 500 ppm, immersion method, read-out: Aphis craccivoral Mortality (%) 500 ppm): 100%; mortality at 500 ppm (Nilaparvata lugens; Nilaparvata lugens, 500 ppm, spraying method, counted after 24 hours, read-out: Nilaparvata lugens Mortality (%) 500 ppm): 100%
N#CC(=Cc1cc(Cl)c(Cl)s1)C1=NCCN1Cc1ccc(Cl)nc1 [Compound 149]	97%	100%	94%	100%	
O=[N+]([O-])C(=Cc1ccc(Br)s1)C1=NCCN1Cc1cnc(Cl)s1 [Compound 87]	100%	100%	100%	100%	
